Experimental data from PMC8899577, “Targeting the anti-apoptotic Bcl-2 family proteins: machine learning virtual screening and biological evaluation of new small molecules” (Theranostics, 2022).

Experiments:
[1] = tested on: HL60 cells; assay: Cell viability by CellTiterGlo, HL60; type: cell-based; conditions: Homo sapiens, HL-60; 24 h, 5 to 50 µM
Description: The effect of compounds on cell viability was performed by measuring 3-[4,5-dimethylthiazol-2-yl]-2,5-diphenyltetrazolium bromide inner salt (MTT, Sigma-Aldrich) dye absorbance (solid tumor cells) or by quantization of ATP present in metabolically active cells using CellTiter-Glo® Luminescent (Promega, Fitchburg, Wisconsin, USA) (hematologic cells) following manifacturer's protocol. To evaluate the cell colony-forming ability, cell suspension from different samples was seeded into 60-mm Petri dishes. After 10 days, colonies were stained with 2% methylene blue in 95% ethanol and counted (1 colony > 50 cells). The surviving fractions were calculated as the ratio of absolute survival of the treated sample/survival of DMSO-treated control sample.
Figure 1 Cytotoxic screening of putative inhibitors of Bcl-2 anti-apoptotic proteins. (A) Flow cytometric quantification of propidium iodide exclusion assay in HL60 cells treated with the 49 putative Bcl-2 family inhibitors (50 μM, 72 h). (B) Analysis of cell viability by CellTiterGlo assay in HL60 cells treated for 24 h with concentrations ranging from 5 to 50 μM of the indicated compounds. (C-D) Analysis of cell viability by MTT assay in (C) M14 and (D) Sbcl2 melanoma cell lines treated for 72 h with concentrations ranging from 5 to 50 μM of the indicated compounds. […]

[2] = tested on: M14 cells; assay: Flow cytometry subG1 peak (PI staining), M14; type: cell-based, Human; conditions: 20 µM for 72 h
Description: Flow cytometric analysis (BD Accuri™ C6, BD Biosciences) was performed to evaluate cell cycle distribution by propidium iodide (PI) staining, and cell viability by using the PI dye exclusion assay as previously reported.
Figure 5 Analysis of apoptosis induction by IS20 and IS21 in leukemia, melanoma and NSCLC cells. […] (A-F) Reported images are representative of two independent experiments with similar results. HSP72/73 or α-Tubulin are shown as loading and transferring control. (G) Flow cytometric quantification of cells in the subG1 peak of cell cycle distribution by propidium iodide staining in HL60 cell line treated with IS20 or IS21 (20 μM for 24 h) and in M14, H1299 and MDA-MB-231 cell lines treated with IS20 or IS21 (20 μM for 72 h). Data are reported as mean ± SD of three independent experiments. p-values were calculated between control (Ctrl) and treated cells, * p < 0.05. (H) Flow cytometric quantification of cells in the subG1 peak by propidium iodide staining in M14 and H1299 cell lines treated with IS20 or IS21 (20 μM, 72 h) in presence or absence of the pan caspase inhibitor z-VAD (50 μM). p-values were calculated between treated control (Ctrl) cells, # p < 0.01, ## p < 0.001 or between cells treated with IS20 or IS21 alone or in combination with z-VAD, * p < 0.05, ** p < 0.005. (G-H) Data are reported as mean of two (H) or three (G) experiments ± SD.

[3] = tested on: normal human fibroblasts; assay: Viability of normal fibroblasts; type: cell-based; conditions: data not shown
[4] = tested on: HL60 cells; assay: Western blot of PARP1 cleavage, HL60; type: cell-based, Human; conditions: 20 µM for 24 h
Description: Western blot analyses of total protein extracts were performed as previously described. Immunodetection was performed using antibodies directed to poly (ADP-ribose) polymerase (PARP; BD Biosciences San Diego, CA, USA), LC3B (Cell Signaling Technology, Danvers, MA), HSP72/73 (Calbiochem, EMD Biosciences, La Jolla, CA), Bcl-2 (SC-509, Santa Cruz Biotechnology Inc, Dallas, TX, USA), Bcl-xL (SC-271121, Santa Cruz Biotechnology Inc), Mcl-1 (SC-12756, Santa Cruz Biotechnology Inc) α-tubulin (Santa Cruz Biotechnology Inc) actin (Sigma-Aldrich, St. Louis, Missouri, USA). Anti-rabbit or anti-mouse immunoglobulin G-horseradish peroxidase-conjugated antibodies (Amersham Biosciences, Freiburg, Germany) were used as secondary antibody. Images were acquired by Image Lab Software (Bio-Rad, Hercules, CA, USA), using a ChemiDoc System instrument (Bio-Rad). […]
Figure 5 Analysis of apoptosis induction by IS20 and IS21 in leukemia, melanoma and NSCLC cells. […] (G) Flow cytometric quantification of cells in the subG1 peak of cell cycle distribution by propidium iodide staining in HL60 cell line treated with IS20 or IS21 (20 μM for 24 h) and in M14, H1299 and MDA-MB-231 cell lines treated with IS20 or IS21 (20 μM for 72 h). Data are reported as mean ± SD of three independent experiments. p-values were calculated between control (Ctrl) and treated cells, * p < 0.05. […]

[5] = target: Bcl-2 (Homo sapiens, UniProt P10415); assay: SPR binding to immobilized Bcl-2; conditions: for Kd: SPR, 25 °C, 2-site fit, highest affinity site
Description: FastStep experiments were performed with a SensiQ Pioneer apparatus. Bcl-2 immobilization on COOH5 sensorchips was carried out essentially as previously reported, [40]. All the experiments were carried out at 25 °C in degassed HEPES 20 mM, pH 7.4, NaCl 150 mM, 0.005% surfactant P20 + 2% DMSO (HBSP2%D). […] Each sensorgram is the average of at least three experiments. The decrease in Response Units (RU) after 165 s indicates analyte dissociation from the immobilized Bcl-2 upon HSBP2%D buffer injection. Control SPR experiments were carried out measuring sensorgrams on Bcl-xL and Mcl-1 (ligands) immobilized on COOH5 sensorchips as previously reported at 25 °C in degassed HBSP2%D buffer. […] Each sensorgram is the average of at least three experiments. The decrease in RU after 180 s indicates analyte dissociation from the immobilized ligands upon HSBP2%D buffer injection. Kinetic evaluation of the sensorgrams was carried out using the Qdat 4.0 program; best fittings were obtained with 2 sites and indicated in red (reported KD values refer to dissociation constants of the highest affinity site).
Figure 2 SPR analysis of the interaction between putative inhibitors of Bcl-2 anti-apoptotic members and Bcl-2 protein. Bcl-2 was immobilized via amine coupling onto a COOH5 sensorchip; Bcl-2 family inhibitors (analytes) were injected at a flow rate = 100 μL/min, at the following concentrations. 0-30 s: 0.625 μM; 31-60 s: 1.25 μM; 61-90 s: 2.5 μM; 91-120 s: 5 μM; 121-150 s: 10 μM; 151-165 s: 20 μM. The increase in Response Units (RU) relative to baseline indicates complex formation between the immobilized Bcl-2 ligand and the analytes upon Bcl-2 family inhibitors injection. The decrease in RU after 165 s indicates analyte dissociation from the immobilized Bcl-2 upon buffer injection. Full fittings with 2 sites are indicated in red. The fitted KD values are the following.

Chain of Bcl-2 (P10415 whole entry): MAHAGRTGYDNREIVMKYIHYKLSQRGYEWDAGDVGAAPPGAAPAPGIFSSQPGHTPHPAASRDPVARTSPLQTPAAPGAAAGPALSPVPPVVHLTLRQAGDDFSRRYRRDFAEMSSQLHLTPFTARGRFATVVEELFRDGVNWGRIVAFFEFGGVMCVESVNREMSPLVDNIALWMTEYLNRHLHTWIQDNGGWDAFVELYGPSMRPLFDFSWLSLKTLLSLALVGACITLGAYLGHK

| SMILES | IC50 [1] [µM] | subG1 peak of cell cycle distribution, M14 [2] | effect on normal human fibroblasts viability [3] | PARP1 cleavage, HL60 [4] | Kd [5] [µM] | selectivity for Bcl-2 than for Mcl-1 ([5]; selectivity index from KD) [times] | selectivity for Bcl-2 than for Bcl-xL ([5]; selectivity index from KD) |
| --- | --- | --- | --- | --- | --- | --- | --- |
| CCCCOc1ccc(C2/C(=C(\O)c3ccc4c(c3)CC(C)O4)C(=O)C(=O)N2c2nnc(SCc3ccc(Cl)cc3)s2)cc1OCC (stereo not shown) [IS20] | 10.9 to 34 | presence of subG1 peak | no significant effect | cleavage of PARP1 | 0.32 ± 0.09 | 12 | – |
| CCCCCOc1ccc(C2/C(=C(\O)c3ccc4c(c3)CC(C)O4)C(=O)C(=O)N2c2nnc(SCc3ccc(Cl)cc3)s2)cc1OCC (stereo not shown) [IS21] | 10.9 to 34 | presence of subG1 peak | no significant effect | cleavage of PARP1 | 0.19 ± 0.07 | ~6 | about 2.7 times |
